Reference: publication PMC11347161, “Sequence diversity of apidaecin-like peptides arresting the terminating ribosome” (Nucleic Acids Research, 2024)
No end group written: not given here.

Columns and labels:
[1] = tested on: E. coli, BL21 cells; format: cell-based; conditions: E. coli BL21, broth microdilution, conducted in triplicate; for MIC, TSB: 33% TSB medium; for MIC, LB: LB medium; for MIC, RPMI/Serum: RPMI/Serum medium (RPMI-1640:MHB:FBS = 100:5:20)
Method in brief: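 Peptide MICs against E. coli BL21 cells were determined in triplicate by broth microdilution. Tests were run in LB, 33% TSB, or RPMI/serum (RPMI-1640:MHB:FBS = 100:5:20).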

[2] = tested on: E. coli BL21 cells; assay: Negative (depletion) selection of clones expressing Api variants, NGS; format: cell-based; conditions: log2-fold change of clone abundance, three replicates, edgeR
Procedure: Prior to the library screening, pilot experiments were conducted to optimize arabinose concentration. To achieve this, E. coli BL21 cells transformed with the pApi plasmid carrying the wt Api gene were plated on LB/agar plates supplemented with Amp and increasing concentrations of arabinose in the 0.05–0.2% range. […] Subsequent library depletion experiments were carried out on plates containing 0.05% arabinose.
For the negative selection targeted at depleting the clones expressing active Api-like peptides, the 2 ml library stock containing a total of ∼2 × 10^9 colony forming units (cfu) was thawed, diluted 3-fold in LB medium and allowed to recover for 30 min at 37°C. Subsequently, the cultures with the recovered cells were thoroughly mixed, and equal volumes (300 μl) were plated on ten LB/Amp plates supplemented with 2% glucose (for the total library) or ten LB/Amp plates supplemented with 0.05% arabinose (for the library depleted of clones expressing active Api variants). After incubation at 37°C for 16 h, clones were washed off the plates and cell suspensions were used for preparation of the total plasmid, resulting in the pApi(Glu) and pApi(Ara) plasmid preps. The depletion experiments were carried out in three independent replicates.
For deep sequencing of the genes encoding Api-like peptides, the peptide-coding genes were PCR-amplified from the total pApi(Glu) and pApi(Ara) plasmids. Two 50 μl PCR reactions were carried out for each sample using Q5 DNA polymerase (New England Biolabs). The reactions were run in the manufacturer provided buffer, each reaction containing 20 ng of plasmid DNA and 10 pmol of primers Api_Lib_F_i5X and Api_Lib_R_i7X (Supplementary Table S2) which added specific bar codes to the individual samples. PCR amplification was carried out under the following conditions: 98°C, 30 s; 10 cycles of [98°C/10 s, 56°C/20 s, 72°C/10 s]; 72°C 120 s. The PCR products were size-fractionated and extracted from the denaturing 8% polyacrylamide gel. Bar-coded DNA libraries (Supplementary Figure S1B) were combined and sequenced on Illumina MiSeq after being spiked in with PhiX Control v3 library (Illumina) to compensate for sequence diversity of the sample.
Sequencing has generated >350 million total reads for the three unselected samples and > 300 million total reads for the depleted library samples. The raw reads were trimmed to the size of the peptide gene and those containing internal ambiguous bases or being less than 60 bases in length were discarded. The nucleotide sequences were translated into amino acid sequences and the peptides lacking N-terminal methionine or deviating from the size of the expected sequence were eliminated. Peptides with <100 reads in each of the pApi(Glu) samples were also discarded. Subsequently, the filtered data underwent differential abundance analysis using the standard workflow of edgeR within the R/Bioconductor package ([27]). This analysis generated logFC (the log2-fold change of unique peptides between Glu and Ara samples), q-values (adjusted P-values with the FDR correction), and log10 CPM values (log counts per million), detailed in Dataset 1. A volcano plot was generated in R to visualize the differential abundance of unique peptides based on these parameters.

[3] = sheet Negative Selection logFC>1, q<0.005 (putatively functional variants), arabinose vs glucose, endogenously expressed peptide
[4] = sheet diff-NS-All, induced (0.05% arabinose) vs non-induced (2% glucose), endogenously expressed peptide with N-terminal Met

| Substance | MIC, TSB [1] | MIC, LB [1] | MIC, RPMI/Serum [1] | Ara/Glu: logFC [2, 3] | Ara/Glu: logFC [2, 4] |
| --- | --- | --- | --- | --- | --- |
| GRNRPVYIPKPRPPHPRL [Peptide R2K10] | 0.25 µM | 2 µM | 0.5 µM | – | – |
| GYNRPAYIPRPRPPHPRR [Peptide Y2A6R10R18] | 1 µM | 4 µM | 0.5 µM | – | – |
| MGNNRKVYIGEPRPPYPRL* [endogenously expressed Api library variant K6,G10,E11,Y16 (numbering includes Met)] | – | – | – | -4.01 | -4.01 |
| MGNNRNVYIAQPRPYHPRI* [endogenously expressed Api library variant N6,A10,Y15,I19 (numbering includes Met)] | – | – | – | – | -4.88 |
| MLNNIGVQVPKPRPPHPRL* [endogenously expressed Api library variant L2,I5,G6,Q8,V9,K11 (numbering includes Met)] | – | – | – | – | -3.95 |
| MTNNRKVYEPEPRPPHPRL* [endogenously expressed Api library variant T2,K6,E9,E11 (numbering includes Met)] | – | – | – | -4.06 | -4.06 |
| SVMRPVYKPQPRPPHPRL [Peptide S1V2M3K8] | 0.5 µM | 16 µM | 4 µM | – | – |
| TNARPVNAPQPRPPHPRL [Peptide T1A3N7A8] | 8 µM | 64 µM | 16 µM | – | – |
